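Step 1: Grow cells in 96-well plates. Step 2: Expose to compound for 48 hours at 5 concentrations. Step 3: Interpolate endpoints linearly; if unreached, use highest concentration. GI50 marks 50% less growth.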 Calls of active or inactive are those of the source. No stated cut-off is given here; in the data, active = GI50 up to about 1.1 µM and inactive = higher. A value given as a limit tells only on which side of the number the result lay.

Among the test systems are OVCAR-8; HL-60; COLO 205; LOX IMVI; SNB-75; OVCAR-3; HCT-116; RXF 393; NCI-H23; ACHN; UO-31; NCI-H226; CCRF-CEM; K562; SR; MOLT-4; HOP-92; SK-OV-3.
Holding throughout (assay): NCI anticancer screen, dose series, 48 h

Consider `COC(=O)c1c(C(=O)OC)c2cc(C(=O)c3ccccc3)ccn2c1Cl`, for which the GI50 in the assay on OVCAR-8 is 30 µM (inactive); in the assay on HL-60, 22.8 µM (inactive); with COLO 205, 35.8 µM (inactive); in the assay with LOX IMVI, 36.1 µM (inactive); in the assay with SNB-75, 12.9 µM (inactive); with OVCAR-3, 21.6 µM (inactive). Besides, the GI50 was 39.6 µM (inactive) in the assay on HCT-116; 23.7 µM (inactive) with RXF 393; 23.1 µM (inactive) in the assay on NCI-H23; 43.8 µM (inactive) in the assay with ACHN; 28.2 µM (inactive) with UO-31; 22.3 µM (inactive) with NCI-H226. The GI50 in the assay on CCRF-CEM is 29.7 µM (inactive); in the assay on K562, 29 µM (inactive); in the assay with SR, 15.4 µM (inactive); with MOLT-4, 17.7 µM (inactive).

Take `COc1cc([C@H]2c3cc4c(cc3[C@H](NCc3ccc(F)cc3)C3COC(=O)[C@H]32)OCO4)cc(OC)c1O` (stereo partly specified): the GI50 in the assay on OVCAR-8 is 4.3 µM (inactive); in the assay with HL-60, 0.815 µM (active); in the assay on COLO 205 it was 13.6 µM (inactive); in the assay on LOX IMVI it was 2.64 µM (inactive); in the assay on SNB-75, 2.08 µM (inactive); in the assay on OVCAR-3, 11.1 µM (inactive). For the same molecule, the GI50 is 7.59 µM (inactive) in the assay with HCT-116; 8.04 µM (inactive) in the assay on RXF 393; 2.22 µM (inactive) in the assay with NCI-H23; 1.13 µM (inactive) with ACHN; 4.13 µM (inactive) in the assay with UO-31; 2.03 µM (inactive) with NCI-H226. The GI50 was 0.923 µM (active) in the assay with CCRF-CEM; 4.36 µM (inactive) in the assay with K562; 0.344 µM (active) in the assay with MOLT-4; 2.57 µM (inactive) in the assay with HOP-92; 2.87 µM (inactive) in the assay on SK-OV-3.

Consider `CC(=O)c1ccc(NC(=O)C(=O)C(C(=O)c2ccc(Cl)c(Cl)c2)C2OC(=O)c3ccccc32)cc1` (stereo unspecified), for which the GI50 with OVCAR-8 was 12.5 µM (inactive); in the assay with HL-60, 28.1 µM (inactive); in the assay with COLO 205, 15.1 µM (inactive); with LOX IMVI it was 14.4 µM (inactive); in the assay with OVCAR-3, 16.9 µM (inactive); with HCT-116 it was 13 µM (inactive). Further, the GI50 was 4.54 µM (inactive) in the assay on RXF 393; 13.6 µM (inactive) in the assay on NCI-H23; 20.5 µM (inactive) in the assay on ACHN; 24.4 µM (inactive) in the assay on UO-31; 5.15 µM (inactive) with NCI-H226; 73.3 µM (inactive) in the assay on CCRF-CEM. Besides, the GI50 in the assay on K562 is 23.3 µM (inactive); with SR, > 100 µM (inactive); in the assay with MOLT-4, > 100 µM (inactive); in the assay on HOP-92, 24.5 µM (inactive); in the assay with SK-OV-3, 59.8 µM (inactive).

Regarding `O=C(c1ccccc1)N1CCN2CCN=C(c3ccccc3)C21c1ccccc1` (stereo unspecified), the GI50 in the assay on OVCAR-8 was > 100 µM (inactive); in the assay with HL-60, 19.2 µM (inactive); in the assay on COLO 205 it was > 100 µM (inactive); in the assay with LOX IMVI, > 100 µM (inactive); with SNB-75, 51.3 µM (inactive); in the assay on OVCAR-3, 79.1 µM (inactive). For the same molecule, the GI50 in the assay on HCT-116 is 48.2 µM (inactive); in the assay on RXF 393, 45.5 µM (inactive); in the assay with NCI-H23, 80.2 µM (inactive); with ACHN, 63.1 µM (inactive); in the assay with UO-31, 22.8 µM (inactive); in the assay on NCI-H226, 19.5 µM (inactive). Besides, the GI50 with CCRF-CEM is 61.9 µM (inactive); in the assay with K562 it was 29.1 µM (inactive); in the assay with MOLT-4 it was 20.2 µM (inactive); with HOP-92 it was 17.1 µM (inactive); in the assay on SK-OV-3, > 100 µM (inactive).

For the molecule `COc1ccc(C(=O)O)c2c(=O)c3ccccc3[nH]c12`, the GI50 with OVCAR-8 is > 100 µM (inactive); with HL-60, > 100 µM (inactive); in the assay on COLO 205 it was > 100 µM (inactive); in the assay with LOX IMVI it was > 100 µM (inactive); in the assay with OVCAR-3, > 10 µM (inactive); with HCT-116, > 100 µM (inactive). Besides, the GI50 with RXF 393 is > 100 µM (inactive); with NCI-H23 it was > 100 µM (inactive); with ACHN, > 100 µM (inactive); with UO-31 it was > 100 µM (inactive); in the assay on NCI-H226, > 100 µM (inactive); in the assay with CCRF-CEM, > 31.6 µM (inactive). For the same molecule, the GI50 in the assay on K562, in the assay with SR, in the assay on MOLT-4, in the assay with HOP-92 and with SK-OV-3 was > 100 µM (inactive) throughout.

Turning to `Cc1cnc2c(C)ccc([N+](=O)[O-])c2c1NCCCN(C)C`, the GI50 in the assay on OVCAR-8, in the assay on HL-60, in the assay with COLO 205, in the assay with LOX IMVI, with OVCAR-3 and with HCT-116 was > 100 µM (inactive) in each case. The GI50 is 31.5 µM (inactive) in the assay on NCI-H23; > 100 µM (inactive) in the assay on ACHN; > 100 µM (inactive) in the assay with UO-31; > 100 µM (inactive) in the assay with NCI-H226; > 100 µM (inactive) in the assay on CCRF-CEM; > 100 µM (inactive) in the assay with K562. Moreover, the GI50 in the assay on SR was > 100 µM (inactive); in the assay on MOLT-4, > 100 µM (inactive); in the assay on SK-OV-3, 75.3 µM (inactive).

Turning to `CC(=O)NC1=C(NCCN(C)C)C(=O)c2ccccc2C1=O`, the GI50 was 11.3 µM (inactive) with OVCAR-8; 9.79 µM (inactive) with HL-60; 9.95 µM (inactive) in the assay on COLO 205; 12.6 µM (inactive) with LOX IMVI; 25.5 µM (inactive) in the assay on SNB-75; 14.7 µM (inactive) in the assay with OVCAR-3. For the same molecule, the GI50 in the assay on HCT-116 is 8.34 µM (inactive); with RXF 393, 25.4 µM (inactive); with NCI-H23, 11.5 µM (inactive); in the assay with ACHN, 16.9 µM (inactive); in the assay with UO-31 it was > 50 µM (inactive); in the assay on NCI-H226 it was > 50 µM (inactive). Also, the GI50 was 15.4 µM (inactive) in the assay with CCRF-CEM; 12.4 µM (inactive) with K562; 41.3 µM (inactive) in the assay with SR; 21.9 µM (inactive) with MOLT-4; > 50 µM (inactive) in the assay with SK-OV-3.

Take `O=C1c2c(O)cccc2C(C(=O)CCCCCC(=O)C2c3cccc(O)c3C(=O)c3c(O)cccc32)c2cccc(O)c21`: the GI50 in the assay with OVCAR-8 was 1.53 µM (inactive); in the assay on HL-60, 1.15 µM (inactive); in the assay on COLO 205 it was 1.98 µM (inactive); in the assay with LOX IMVI, 0.906 µM (active); with SNB-75, 1.03 µM (active); in the assay on OVCAR-3 it was 0.938 µM (active). Besides, the GI50 in the assay with HCT-116 is 0.957 µM (active); in the assay on NCI-H23, 0.692 µM (active); in the assay on ACHN, 2.72 µM (inactive); in the assay with UO-31 it was 1.15 µM (inactive); in the assay with NCI-H226 it was 3.64 µM (inactive); with CCRF-CEM, 1.36 µM (inactive). Moreover, the GI50 in the assay on K562 was 0.966 µM (active); in the assay on SR, 1.79 µM (inactive); with MOLT-4 it was 9.53 µM (inactive); in the assay with HOP-92, 7.98 µM (inactive); with SK-OV-3, 0.879 µM (active).

Take `CC(CN(C)C)C(=O)c1ccccc1` (stereo unspecified): the GI50 in the assay on OVCAR-8 was 31.6 µM (inactive); in the assay on HL-60, 15.9 µM (inactive); with COLO 205, 31.6 µM (inactive); in the assay on LOX IMVI, 14.9 µM (inactive); with SNB-75, > 83.9 µM (inactive); with OVCAR-3, 42.4 µM (inactive). For the same molecule, the GI50 with HCT-116 is 28.8 µM (inactive); with RXF 393, 22.8 µM (inactive); in the assay with NCI-H23, 24.9 µM (inactive); in the assay with ACHN, 24.8 µM (inactive); in the assay with UO-31 it was > 31.6 µM (inactive); in the assay on NCI-H226, > 100 µM (inactive). Besides, the GI50 with CCRF-CEM is 3.78 µM (inactive); with K562 it was 5.02 µM (inactive); with SR it was 19.6 µM (inactive); in the assay with MOLT-4 it was 8.22 µM (inactive); in the assay with HOP-92 it was 2.33 µM (inactive).

Regarding `CC(=O)c1cccc(NC(=O)C(=O)Nn2c(N)nnc2N)c1`, the GI50 in the assay with OVCAR-8, with HL-60, in the assay on COLO 205, with LOX IMVI, in the assay with SNB-75 and in the assay on HCT-116 was > 100 µM (inactive) each time. For the same molecule, the GI50 in the assay on RXF 393, in the assay with NCI-H23, in the assay on ACHN, in the assay on UO-31, in the assay with NCI-H226 and in the assay on CCRF-CEM was > 100 µM (inactive) each time. Moreover, the GI50 in the assay on K562, in the assay with SR, in the assay with MOLT-4, in the assay on HOP-92 and in the assay on SK-OV-3 was > 100 µM (inactive) each time.

Take `O=C1/C(=C/c2ccccc2)CN(C(=O)C(F)(F)F)C/C1=C\c1ccccc1`: the GI50 in the assay on OVCAR-8 is 1.64 µM (inactive); in the assay with HL-60, 0.733 µM (active); in the assay on COLO 205, 2.42 µM (inactive); in the assay with LOX IMVI, 1.22 µM (inactive); in the assay with SNB-75, 6.58 µM (inactive); with OVCAR-3 it was 3.25 µM (inactive). The GI50 with HCT-116 was 0.333 µM (active); in the assay on RXF 393, 1.84 µM (inactive); in the assay on NCI-H23, 1.83 µM (inactive); with ACHN, 2.24 µM (inactive); in the assay on UO-31, 2.18 µM (inactive); in the assay with CCRF-CEM, 1.54 µM (inactive). For the same molecule, the GI50 is 0.467 µM (active) in the assay with K562, 2.02 µM (inactive) with SR and 3.06 µM (inactive) with MOLT-4.

For `C=CC1C(OC2OC(CO)C(O)C(O)C2O)OC=C(C(=O)OC)C1CC=O` (stereo unspecified), the GI50 with HL-60, in the assay with COLO 205, in the assay on LOX IMVI, with SNB-75, in the assay on OVCAR-3 and with RXF 393 was > 100 µM (inactive) each time. For the same molecule, the GI50 in the assay on NCI-H23 is > 100 µM (inactive); in the assay on ACHN, > 100 µM (inactive); with UO-31, > 100 µM (inactive); with NCI-H226, 37.8 µM (inactive); in the assay with K562, > 100 µM (inactive); with SR, > 100 µM (inactive). The GI50 in the assay on MOLT-4 and in the assay on SK-OV-3 was > 100 µM (inactive) in each case.

These data come from ChEMBL document CHEMBL1201862, “PubChem BioAssay data set” (2004).
